Legend:
[1] = Clinical cohort: inflammatory markers and cytokines in peripheral blood and CSF of HIV patients on lenalidomide; format: in vivo, human
Protocol: HIV patients with CM after antiretroviral therapy (ART) were recruited. […] Lenalidomide (25 mg) was orally administered at days 1 to 21 in a 28-day cycle, and ART was continued for 48 weeks. The participants were followed up at 7 points (base line 0w, 4w, 8w, 12w, 24w, 36w, and 48w). Inflammatory cytokines in CSF and peripheral blood were detected at each follow-up point, and PBMCs were extracted from the patients and detected for indicators of HIV reservoir.

HIV reservoir = assay: Clinical cohort: indicators of HIV reservoir (CA HIV RNA) in PBMCs extracted from patients; format: in vivo, human
Protocol: HIV patients with CM after antiretroviral therapy (ART) were recruited. These participants had central damage after receiving standard anti-fungal therapy, elevated cerebrospinal fluid (CSF) protein level, age of 18 years or more, and plasma HIV RNA of <50 copies/ml and CD4 T cell count of >100 cells/mm3 after receiving ART for at least 48 weeks. Lenalidomide (25 mg) was orally administered at days 1 to 21 in a 28-day cycle, and ART was continued for 48 weeks. The participants were followed up at 7 points (base line 0w, 4w, 8w, 12w, 24w, 36w, and 48w). Inflammatory cytokines in CSF and peripheral blood were detected at each follow-up point, and PBMCs were extracted from the patients and detected for indicators of HIV reservoir. […] For CA HIV-RNA, lenalidomide has a great influence. […] The subjects Nos. 110 and 113 have a decline that exceeds 2 log order of magnitude.

U1 cells = assay: CCK8 survival rate of U1 cells; format: cell-based; settings: lenalidomide 0.5, 1, 2, 5, 10, and 20 μmol/L, 24 hrs
Protocol: CCK8 was used to evaluate the safety of lenalidomide when U1 cells were treated with it in vitro. After U1 cells were treated with various concentrations of lenalidomide (0.5, 1, 2, 5, 10, and 20 μmol/L) for 24 hrs, the survival rate of U1 cells was detected by CCK8 kit. […] There is no significant difference between the control group and various concentration groups and between the various concentration groups. Lenalidomide has a high safety when acting on latent cell lines in vitro.

latent HIV cell line U1 = assay: P24 ELISA in supernatant of U1 cells stimulated with latent activator; format: cell-based; settings: pretreated 1, 2, and 5 μmol/L lenalidomide 24 hrs
Protocol: U1 cells were pretreated with various concentrations of lenalidomide (1, 2, and 5 μmol/L) for 24 hrs, and then the U1 cells pre-treated with lenalidomide were stimulated with a latent activator (TNF-a, PMA, or LPS). The U1 cells in the negative control group were cultured alone, and the U1 cells in the positive control group were not pretreated with lenalidomide. The activation of P24 protein in the supernatant of latent cells U1 was detected by ELISA. […] Compared with the positive control group, the P24 contents decline in the supernatants of the three experimental groups pretreated with 1, 2, and 5 μmol/L lenalidomide, and the difference is statistically significant (P=0.0029, 0.0019, and 0.0017, B in FIG. 3). The difference between various concentrations of lenalidomide groups is not obvious. (2) In the experiment where TNF-α of 20 μg/ml is used as the latent activator, similar results are observed. […] (3) The study of endotoxin (LPS, 10 μg/ml) as a latent activator is rare.

[2] = test system: HIV-1 latent cell line U1; assay: Viral mRNA expression in U1 cells activated with LPS; format: cell-based; settings: lenalidomide 2 μmol/L pretreatment 24 hrs
Protocol: After the HIV-1 latent cell line is activated by activator, the expression of viral mRNA in the cells is increased, causing the production of virions. […] The U1 cells were divided into three groups. The negative control group was added with the same amount of culture medium. In the positive control group, cells were pretreated with the culture medium, and LPS was added as an activator after 24 hrs. In the experimental group, lenalidomide (2 μmol/L) was added to pretreat the cells for 24 hrs and then LPS was added to activate the cells. […] (2) The expression levels of multi-spliced RNA, single-spliced RNA and non-spliced RNA in U1 were also detected.

[3] = test system: HIV-1 primary cell CD8-PBMCs; assay: Virus reactivation in HIV-1 primary cells CD8-PBMCs (intracellular P24 by flow cytometry, CA HIV RNA by RT-PCR); format: cell-based, human
Protocol: Lenalidomide is confirmed to inhibit the transcription of virus in HIV-1 latent cell line, and whether it has the same effect in HIV primary cells is unknown. CD8-PBMCs were divided into an experimental group and a positive control group and treated with or without lenalidomide for 5 days. Both groups were supplemented with LPS irregularly. In the negative control group, the same amount of DMSO was added for control culture throughout the whole process. After 5 days, the cells were broken, and the difference in expression of intracellular P24 protein in CD8-PBMCs was detected by flow cytometry. As shown in A in FIG. 5, in the positive control group, the intracellular HIV-1 core P24 in CD8-PBMCs reaches 9.76% after the continuous action of activator. […] The differences in the expression of CA HIV RNA in the five samples were also detected.

[4] = test system: PBMCs derived from HIV-1 patients; assay: Cytokines in supernatant of PBMCs from HIV-1 patients (cytometric bead array); format: cell-based, human; settings: PBMCs co-cultured with lenalidomide 24 hrs vs control group
Protocol: The in-vitro regulatory effect of lenalidomide was verified as follows. PBMCs were separated from peripheral blood donated by HIV-1 patients, and divided into a control group and an experimental group. The control group was cultured alone, and the experimental group was co-cultured with lenalidomide. After 24 hrs, the supernatant was taken for cytokine detection. The level of cytokines in the supernatant was measured by a cytometric bead array kit.

J-lat10.6 cells = assay: GFP activation of J-lat10.6 cells by supernatant of PBMCs treated with lenalidomide; format: cell-based; settings: supernatant added with lenalidomide; control supernatant activates GFP by 51.7%
Excerpt: (§1) Lenalidomide has a powerful immunomodulatory effect, and can inhibit the release of pro-inflammatory cytokines in PBMCs derived from HIV patients in vitro and promote the secretion of anti-inflammatory cytokine IL-10. However, whether this degree of immunomodulation can inhibit HIV replication was not confirmed. The latent cell lines J-lat10.6 and C11 cells were used for the experiment. The supernatants of the experimental group and control group were used to stimulate J-lat10.6 and C11 cells, respectively. […] Lenalidomide can regulate the release of inflammatory cytokines in PBMCs from HIV-1 patients in vitro, and this bypass pathway can inhibit virus reactivation in HIV-1 latent cell lines.

C11 cells = assay: GFP activation of C11 cells by supernatant of PBMCs treated with lenalidomide; format: cell-based; settings: supernatant of lenalidomide group; control group 23.17%
Excerpt: as §1

[5] = peripheral blood, after lenalidomide treatment

Nc1cccc2c1CN(C1CCC(=O)NC1=O)C2=O (stereo not drawn) [lenalidomide]
IL-6 level in CSF ([1]; CSF): significantly reduces | TNF-a level in CSF ([1]; CSF): significantly reduces | IL-6 [1, 5]: decrease significantly | TNF-a [1, 5]: decrease significantly | CRP of HIV subjects ([1]; peripheral blood, lenalidomide 25 mg oral days 1 to 21 of 28-day cycle, after 7 weeks): decrease | D-dimer of HIV subjects ([1]; peripheral blood, lenalidomide 25 mg oral days 1 to 21 of 28-day cycle, after 12 weeks): decrease | CA HIV-RNA (HIV reservoir; 13 patients, from the 24th week, more obvious at the 48th week): declines obviously | decline of CA RNA (HIV reservoir; subjects Nos. 110 and 113): exceeds 2 log order of magnitude | survival rate of U1 cells (U1 cells): less affected | P24 content in supernatant vs positive control group (latent HIV cell line U1; LPS 10 μg/ml): significantly lower | P24 content in supernatant vs positive control group (latent HIV cell line U1; PMA 20 nmol/L 24 hrs): decline | P24 content in supernatant vs positive control group (latent HIV cell line U1; TNF-α 20 μg/ml): significantly lower | expression level of multi-spliced RNA ([2]; then LPS): significantly inhibits | expression level of non-spliced RNA ([2]; then LPS): significantly inhibits | expression level of single-spliced RNA ([2]; then LPS): significantly inhibits | mRNA level of Gag ([2]; then LPS 10 μg/ml 24 hrs): basically inhibited | mRNA level of Rev protein ([2]; then LPS 10 μg/ml 24 hrs): basically inhibited | expression of intracellular antigen P24 ([3]; 5 days with lenalidomide and LPS, positive control 9.76%, DMSO control 0.73%): 4.15% | decrease of average amount of CA HIV-1 RNA vs positive control group ([3]; five samples, RT-PCR): 0.49 time | IL-6 in supernatant [4]: decrease significantly | IL-10 in supernatant [4]: increases significantly | TNF-α in supernatant [4]: decrease significantly | J-lat10.6 GFP (J-lat10.6 cells): 24.21% | GFP activation of C11 cells (C11 cells): 8.09%

From patent US20240207241A1, “Method for Promoting Functional Cure of AIDS by Reducing HIV Reservoir with Lenalidomide” (priority 2022, published 2024)
